Data reported in paper PMC8511295 (European journal of medicinal chemistry, 2021).
Like-named read-outs stand apart in the source and are kept apart here.

Key:
[1] = system: HIV-1 NL4–3-HXB2-Luc pseudotyped virus expressing Env of the lab-adapted HIV-1HXB-2 (CXCR4); type: cell-based; conditions: TZM-bl cells
[2] = system: recombinant CD4-dependent HIV-1ADA virus in CD4-negative Cf2Th-CCR5 cells; type: cell-based; conditions: escalating concentrations
[3] = system: HIV-1WEAUd15.410.5017 (NIH # 11578), dual-tropic (CCR5/CXCR4) clinical isolate of subtype B; type: cell-based
[4] = system: control pseudovirus MLV-GP/VSV-G/Luc; assay: microbe, parasite or virus in culture; type: cell-based
[5] = biological target: HIV-1 Reverse Transcriptase (RT) (Human immunodeficiency virus type 1 group M subtype B, UniProt P04585); assay: Colorimetric Reverse Transcriptase Assay; type: biochemical
[6] = in vitro; conditions: human

Row | Structure (SMILES) | antiviral activity against HIV-1HXB-2, in words [1] | further results
1 | NC[C@@H](NC(=O)c1ccc(OCC2CCCCC2)cc1)c1ncc(CO)s1 [7(fR), N-(2-amino-1-(5-(hydroxymethyl)thiazol-2-yl)ethyl)-4-(cyclohexylmethoxy)benzamide] | poorly active | 
2 | O=C(N[C@@H](CC1CCNCC1)c1nc(CO)cs1)c1ccc(-c2ccc(C(F)(F)F)cc2)[nH]1 [18(fS), N-(1-(4-(hydroxymethyl)thiazol-2-yl)-2-(piperidin-4-yl)ethyl)-5-(4-(trifluoromethyl)phenyl)-1H-pyrrole-2-carboxamide] | low antiviral activity | 
3 | Cc1cc(-c2ccc(C(F)(F)F)cn2)[nH]c1C(=O)NC(CN)c1ncc(CO)s1 (stereo not shown) [NBD-14270] |  | relative virus infectivity (enhancement of infection), in words [2]: did not enhance HIV-1 infectivity
4 | NC[C@@H](NC(=O)Cc1ccc(OCC2CCCCC2)cc1)c1ncc(CO)s1 [9(fR), N-(2-amino-1-(5-(hydroxymethyl)thiazol-2-yl)ethyl)-2-(4-(cyclohexylmethoxy)phenyl)acetamide] | no significant antiviral activity | 
5 | NC[C@@H](NC(=O)c1ccc(NCC2CCCCC2)cc1)c1ncc(CO)s1 [8(fR), N-(2-amino-1-(5-(hydroxymethyl)thiazol-2-yl)ethyl)-4-((cyclohexylmethyl)amino)benzamide] | poorly active | 
6 | O=C(NC1(c2nc(CO)cs2)CCNCC1)c1ccc(-c2ccc(C(F)(F)F)cc2)[nH]1 [compound 17, N-(4-(4-(hydroxymethyl)thiazol-2-yl)piperidin-4-yl)-5-(4-(trifluoromethyl)phenyl)-1H-pyrrole-2-carboxamide] |  | antiviral activity against the clinical isolate HIV-1WEAUd15.410.5017, in words [3]: best antiviral activity
7 | NCC(NC(=O)c1cc2ccc(Cl)cc2[nH]1)c1nc(CO)cs1 [12(fR), N-(2-amino-1-(4-(hydroxymethyl)thiazol-2-yl)ethyl)-6-chloro-1H-indole-2-carboxamide] |  | antiviral activity against the clinical isolate HIV-1WEAUd15.410.5017, in words [3]: best antiviral activity; activity against control pseudovirus VSV-G, in words [4]: poorly active against VSV-G; IC50 ([4]; Pseudovirus, U87/CD4/CCR5, read-out: IC50 against VSV-G): 15.7 ± 1 µM; activity against HIV-1 RT, in words [5]: no activity; CC50 [6]: 83 to 84 µM
8 | Cl.Cl.NC[C@@H](NC(=O)CNCc1ccc(Cl)cc1)c1ncc(CO)s1 [4(fR), N-(2-amino-1-(5-(hydroxymethyl)thiazol-2-yl)ethyl)-2-((4-chlorobenzyl)amino)acetamide dihydrochloride] | None of these derivatives showed any appreciable antiviral activity | 
9 | Cl.Cl.NC[C@H](NC(=O)CNCc1ccc(Cl)cc1)c1ncc(CO)s1 [4(fS), N-(2-amino-1-(5-(hydroxymethyl)thiazol-2-yl)ethyl)-2-((4-chlorobenzyl)amino)acetamide dihydrochloride] | None of these derivatives showed any appreciable antiviral activity | 
10 | NC[C@@H](NC(=O)c1ccc(C2CCCCC2)[nH]1)c1ncc(CO)s1 [6(fR), N-(2-amino-1-(5-(hydroxymethyl)thiazol-2-yl)ethyl)-5-cyclohexyl-1H-pyrrole-2-carboxamide] | poorly actives | 
11 | NC[C@H](NC(=O)c1ccc(OCC2CCCCC2)cc1)c1ncc(CO)s1 [7(fS), N-(2-amino-1-(5-(hydroxymethyl)thiazol-2-yl)ethyl)-4-(cyclohexylmethoxy)benzamide] | poorly active | 
12 | NCC(NC(=O)c1cc2ccc(Cl)cc2[nH]1)c1nc(CO)cs1 (stereo not shown) [compound 12, N-(2-amino-1-(4-(hydroxymethyl)thiazol-2-yl)ethyl)-6-chloro-1H-indole-2-carboxamide] | moderate activity | 
13 | NC[C@H](NC(=O)Cc1ccc(OCC2CCCCC2)cc1)c1ncc(CO)s1 [9(fS), N-(2-amino-1-(5-(hydroxymethyl)thiazol-2-yl)ethyl)-2-(4-(cyclohexylmethoxy)phenyl)acetamide] | no significant antiviral activity | 
14 | Cc1nc(C(CN)NC(=O)c2cc3ccccc3[nH]2)sc1CO (stereo not shown) [compound 10, N-(2-amino-1-(5-(hydroxymethyl)-4-methylthiazol-2-yl)ethyl)-1H-indole-2-carboxamide] | virtually inactive | 
15 | NCC(NC(=O)c1ccc(-c2ccc(Cl)cc2)[nH]1)c1nccs1 [13(fR), N-(2-amino-1-(thiazol-2-yl)ethyl)-5-(4-chlorophenyl)-1H-pyrrole-2-carboxamide] |  | antiviral activity against the clinical isolate HIV-1WEAUd15.410.5017, in words [3]: best antiviral activity; activity against control pseudovirus VSV-G, in words [4]: poorly active against VSV-G
16 | NC[C@H](NC(=O)c1ccc(C2CCCCC2)[nH]1)c1ncc(CO)s1 [6(fS), N-(2-amino-1-(5-(hydroxymethyl)thiazol-2-yl)ethyl)-5-cyclohexyl-1H-pyrrole-2-carboxamide] | poorly actives | 
17 | NCC(NC(=O)c1ccc(-c2ccc(Cl)cc2)[nH]1)c1nccs1 [13(fS), N-(2-amino-1-(thiazol-2-yl)ethyl)-5-(4-chlorophenyl)-1H-pyrrole-2-carboxamide] |  | antiviral activity against the clinical isolate HIV-1WEAUd15.410.5017, in words [3]: best antiviral activity; activity against control pseudovirus VSV-G, in words [4]: poorly active against VSV-G
18 | Cc1nc(C(CN)NC(=O)c2cc3cc(Cl)ccc3[nH]2)sc1CO (stereo not shown) [compound 11, N-(2-amino-1-(5-(hydroxymethyl)-4-methylthiazol-2-yl)ethyl)-5-chloro-1H-indole-2-carboxamide] | virtually inactive | 
19 | NCC(NC(=O)c1cc2ccc(Cl)cc2[nH]1)c1nc(CO)cs1 [12(fS), N-(2-amino-1-(4-(hydroxymethyl)thiazol-2-yl)ethyl)-6-chloro-1H-indole-2-carboxamide] |  | antiviral activity against the clinical isolate HIV-1WEAUd15.410.5017, in words [3]: best antiviral activity; activity against control pseudovirus VSV-G, in words [4]: poorly active against VSV-G; IC50 ([4]; read-out: IC50 against VSV-G): 20.5 ± 0.5 µM
20 | CC1(C)CC(NC(=O)C(=O)Nc2ccc(Cl)cc2)CC(C)(C)N1 [NBD-556, reference compound] |  | activity against HIV-1 RT, in words [5]: no activity; relative virus infectivity (enhancement of infection), in words [2]: enhanced the infection of the Cf2Th-CCR5 cells in a dose-dependent manner
21 | Cl.NCCNC(=O)c1ccc(-c2ccc(Cl)c(F)c2)[nH]1 [compound 14, N-(2-aminoethyl)-5-(4-chloro-3-fluorophenyl)-1H-pyrrole-2-carboxamide hydrochloride] | low μM range | 
22 | O=C(N[C@H](CC1CCNCC1)c1nc(CO)cs1)c1ccc(-c2ccc(C(F)(F)F)cc2)[nH]1 [18(fR), N-(1-(4-(hydroxymethyl)thiazol-2-yl)-2-(piperidin-4-yl)ethyl)-5-(4-(trifluoromethyl)phenyl)-1H-pyrrole-2-carboxamide] | low antiviral activity | 
23 | Cc1nc(C(CN)NC(=O)NC(=O)c2ccc(Cl)cc2)sc1CO (stereo not shown) [compound 5, N-((2-amino-1-(5-(hydroxymethyl)-4-methylthiazol-2-yl)ethyl)carbamoyl)-4-chlorobenzamide] | failed to show any significant antiviral activity | 
24 | NCC(NC(=O)C(=O)NCc1ccc(Cl)c(F)c1)c1ncc(CO)s1 (stereo not shown) [compound 3, N’-[2-amino-1-[5-(hydroxymethyl)thiazol-2-yl]ethyl]-N-[(4-chloro-3-fluorophenyl)methyl]oxamide] | failed to show any significant antiviral activity | 
25 | NC[C@H](NC(=O)c1ccc(NCC2CCCCC2)cc1)c1ncc(CO)s1 [8(fS), N-(2-amino-1-(5-(hydroxymethyl)thiazol-2-yl)ethyl)-4-((cyclohexylmethyl)amino)benzamide] | poorly active | 
